The data set can be described thus: Pharmacokinetics after i.v. and p.o. administration to rats. It is filed as in vivo, Sprague–Dawley rats. Particulars: for half-life at 4 h: read-out: half-life (min) (elimination phase). The procedure:
Based on both its biological profile, showing a good efficacy in primary and secondary assays, and preliminary in vitro ADME properties, potentiator 39 was further evaluated in in vivo studies. […]
Male Sprague–Dawley rats, 2 month old and weighing 175–200 g (Charles River, Calco, Italy), were used. Animals were group-housed in ventilated cages and had free access to food and water. They were maintained under a 12 h light/dark cycle (lights on at 8:00 am) at a controlled temperature (21 ± 1 °C) and relative humidity (55 ± 10%). All experiments were carried out in accordance with the guidelines established by the European Communities Council Directive (Directive 2010/63/EU of September 22, 2010) and approved by the National Council on Animal Care of the Italian Ministry of Health. All efforts were made to minimize animal suffering and to use the minimal number of animals required to produce reliable results.
[…] PEG400/Tween 80/saline solution was used as a vehicle at 10/10/80% in volume, respectively. Three animals per dose were treated. Blood samples at 0, 15, 30, 60, 90, 120, 240, and 360 min after administration were collected for p.o. arm. Blood samples at 0, 5, 15, 30, 60, 90, 120, and 240 min after administration were collected for i.v. arm. Plasma was separated from blood by centrifugation for 15 min at 3500 rpm at 4 °C, collected in an Eppendorf tube, and frozen (−80 °C). Control animals treated with vehicle only were also included in the experimental protocol.
Plasma samples were centrifuged at 21,100g for 15 min at 4 °C, while homogenized lung samples were vigorously whirled. An aliquot of each sample was extracted (1:3) with cold CH3CN containing 200 nM of an appropriate internal standard being a close analogue of the parent compound. A calibration curve was prepared in both blank mouse plasma and naïve lung homogenate over a 1 nM to 10 μM range. Three quality controls were prepared by spiking the parent compound in both blank mouse plasma and naïve lung homogenate to 20, 200, and 2000 nM as final concentrations. The calibrators and quality controls were extracted (1:3) with the same extraction solution as the plasma and lung samples. The plasma and lung samples, the calibrators, and quality controls were centrifuged at 3270g for 15 min at 4 °C. The supernatants were further diluted (1:1) with H2O and analyzed by LC/MS–MS on a Waters ACQUITY UPLC/MS TQD system consisting of a TQD mass spectrometer equipped with an electrospray ionization interface and a photodiode array eλ detector. Electrospray ionization was applied in the positive mode. Compound-dependent parameters such as MRM transitions and collision energy were developed for the parent compound and the internal standard. The mobile phase was H2O + 0.1% HCOOH (A) and CH3CN + 0.1% HCOOH (B) at a flow rate of 0.5 mL/min. For plasma samples, the analyses were run on an ACQUITY UPLC BEH C18 (50 × 2.1 mm ID, particle size 1.7 μm) with a VanGuard BEH C18 precolumn (5 × 2.1 mm ID, particle size 1.7 μm) at 40 °C. A linear gradient was applied starting at 30% B with an initial hold for 0.2 min and then 30–100% B in 2 min. For lung samples, the analyses were run on an ACQUITY UPLC BEH C18 (100 × 2.1 mm ID, particle size 1.7 μm) with a VanGuard BEH C18 precolumn (5 × 2.1 mm ID, particle size 1.7 μm) at 40 °C. A linear gradient was applied starting at 30% B with an initial hold for 0.2 min and then 30–100% B in 6 min. All samples (plasma and lung samples, calibrators, and quality controls) were quantified by MRM peak area response factor in order to determine the levels of the parent compound in plasma and lung. The concentrations versus time data were plotted and the profiles were fitted using PK Solutions Excel Application (Summit Research Service, USA) in order to determine the pharmacokinetic parameters.

Where [1] appears, read: male, Sprague-Dawley, rat, iv, 3 mg/kg, plasma.
The mark [2] stands for this setting: male, Sprague-Dawley, rat, plasma, iv, 3 mg/kg.
Where [3] appears, read: male, Sprague-Dawley, rat, plasma, po, 10 mg/kg.
Setting [4] is: male, Sprague-Dawley, rat, po, 10 mg/kg, plasma.

As usually defined, the Cmax is the highest concentration seen after dosing. A word on the AUC: it is the area under the concentration-time curve, a measure of exposure. One may read the half-life as the time needed for the level to fall by half in the phase considered. As a reminder, the bioavailability is dose-corrected exposure relative to a reference, in per cent.

Several values for one entry are separate records, joined by “and”; a condition that tells them apart may be missing. Equal values may be shown once. Read-outs that look alike come from different tables or passages of the source.

For the compound `Cc1ccc(F)c2[nH]c3c(c12)CN(C(=O)c1cc(C(F)(F)F)[nH]n1)[C@H](C)C3` [Compound 39, (R)-(6-Fluoro-3,9-dimethyl-1,3,4,5-tetrahydro-2H-pyrido[4,3-b]indol-2-yl)-(5-(trifluoromethyl)-1H-pyrazol-3-yl)methanone], under setting [1], the Cmax stood at 2790 ng/mL and the maximum concentration (Cmax) at 4 h came to 7.3 µM. Under setting [2], the AUC was 2320 ng·h/mL and 6.1 µM·h; the Tmax at 4 h was 5 min; the Vd at 4 h came out at 2.39 L/kg; the clearance at 4 h was determined as 19 mL/min/kg. The half-life at 4 h under setting [2] is 89 min. Besides, the bioavailability (male, Sprague-Dawley, rat, plasma, oral, p.o. 10 mg/kg versus i.v. 3 mg/kg, time interval 0–4 h) was roughly 30%. Also, under setting [3], the AUC was 2330 ng·h/mL and the half-life at 4 h is 212 min. The concentration at 6 h (male, Sprague-Dawley, rat, plasma, po, 10 mg/kg, read-out: plasma level at 6 h postadministration) was > 450 ng/mL and ~1.2 µM. For the setting “male, Sprague-Dawley, rat, plasma, po, 10 mg/kg, read-out: time of maximal plasma concentration”, the Tmax worked out at 2 h. In addition, the AUC (male, Sprague-Dawley, rat, plasma, po, 10 mg/kg, time interval 0–4 h) was found to be 6.1 µM·h. Also, the bioavailability at 4 h (male, Sprague-Dawley, rat, plasma, po, p.o. 10 mg/kg versus i.v. 3 mg/kg, time interval 0–4 h) stood at 30%. For the same compound, under setting [4], the Cmax is 769 ng/mL and the Cmax at 4 h is 2 µM. Besides, under “p.o., 10 mg/kg”, the “Tmax” value turned out to be 2 h.

The values above are taken from PMC8011931, “Identification, Structure–Activity Relationship, and Biological Characterization of 2,3,4,5-Tetrahydro-1H-pyrido[4,3-b]indoles as a Novel Class of CFTR Potentiators” (Journal of Medicinal Chemistry, 2020).
